Measured values from patent US7498326B2, “Compounds” (Glaxo Group Limited, priority 2002, dated 2009).
Where a name gives a salt, the structure may show the parent alone.

Experiment: MIC of test compounds against various organisms
Type: cell-based
Conditions: versus all these organisms: S. epidermidis CL7, S. aureus WCUH29, S. pneumoniae 1629, S. pyogenes CN10, H. influenzae ATCC 49247, E. faecalis 2, M. catarrhalis Ravasio, E. coli 7623
Experimental: The MIC (μg/ml) of test compounds against various organisms was determined including: S. epidermidis CL7, S. aureus WCUH29, S. pneumoniae 1629, S. pyogenes CN10, H. influenzae ATCC 49247, E. faecalis 2, M. catarrhalis Ravasio, E. coli 7623. Examples 1, 5, 6, 7, 8, 11, 13 have an MIC≦2 μg/ml versus all these organisms.
In the case of N#Cc1ccc2nccc(CCN3CCC(NCc4ccc5c(n4)NC(=O)CO5)CC3)c2c1 [Example 1, 4-2-{4-[(3-Oxo-3,4-dihydro-2H-pyrido[3,2-b][1,4]oxazin-6-ylmethyl)-amino]-piperidin-1-yl}-ethyl)-quinoline-6-carbonitrile dihydrochloride], the MIC is reported as at most 2 µg/mL.
With COc1cnc2cccc(C(O)CN3CCC(NCc4ccc5c(n4)NC(=O)CS5)CC3)c2n1 (racemic) [Example 5, 6-{[(1-{(2R/S)-2-hydroxy-2-[3-(methyloxy)-5-quinoxalinyl]ethyl}-4-piperidinyl)amino]methyl}-2H-pyrido[3,2-b][1,4]thiazin-3(4H)-one dihydrochloride] the MIC was at most 2 µg/mL.
N#Cc1ccc2nccc(CCN3CC[C@H](NCc4ccc5c(n4)NC(=O)CS5)[C@H](O)C3)c2c1 [Example 11, 4-[2-(3-hydroxy-4-{([(3-oxo-3,4-dihydro-2H-pyrido[3,2-b][1,4]thiazin-6-yl)methyl]amino}-1-piperidinyl)ethyl]-6-quinolinecarbonitriledihydrochloride (E2 isomer)] gave an MIC of at most 2 µg/mL.
Compound COc1cnc2cccc(C(O)CN3CCC(NCc4cc5c(cn4)OCCO5)CC3)c2n1 (stereo not drawn) [Example 6, (1R/S)-2-{4-[(2,3-dihydro[1,4]dioxino[2,3-c]pyridin-7-ylmethyl)amino]1-1-piperidinyl}-1-[3-(methyloxy)-5-quinoxalinyl]ethanol dihydrochloride] has an MIC of at most 2 µg/mL.
In the case of O=C1CSc2ccc(CN[C@H]3CCN(CCc4ccnc5ccc6c(c45)OCCO6)C[C@H]3F)nc2N1 [Example 4, 6({(3R,4S)-1-[2-(2,3-Dihydro-[1,4]dioxino[2,3-f]quinolin-10-yl)-ethyl]-3-fluoro-piperidin-4-ylamino}-methyl)-4H-pyrido[3,2-b][1,4]thiazin-3-one], the MIC is reported as at most 16 µg/mL.
Compound COc1ccc2cccc(C(O)CN3CCC(NCc4ccc5c(n4)NC(=O)CO5)CC3)c2n1 (stereo not drawn) [Example 8, 6-{[(1-{2-hydroxy-2-[2-(methyloxy)-8-quinolinyl]ethyl}4-piperidinyl)amino]methyl}-2H-pyrido[3,2-b][1,4]oxazin-3(4H)-one] has an MIC of at most 2 µg/mL.
Work on N#Cc1ccc2nccc(CCN3CC[C@H](NCc4ccc5c(n4)NC(=O)CO5)[C@H](O)C3)c2c1 (stereo in doubt) [Example 12, 4-[2-(3-hydroxy-4-{[(3-oxo-3,4-dihydro-2H-pyrido[3,2-b][1,4]oxazin-6-yl)methyl]amino}-1-piperidinyl)ethyl]-6-quinolinecarbonitrile (E1 isomer)] yielded an MIC of at most 16 µg/mL.
For Clc1cnc2ccc3c(c2c1CCN1CCC(NCc2cc4c(cn2)OCCO4)CC1)OCCO3 [Example 7, {1-[2-(9-Chloro-2,3-dihydro-[1,4]dioxino[2,3-f]quinolin-10-yl)-ethyl]-piperidin-4-yl}-(2,3-dihydro-[1,4]dioxino[2,3-c]pyridin-7-ylmethyl)-amine dihydrochloride], the MIC was at most 2 µg/mL.

Same assay, conditions: versus some of these organisms (which of the eight listed strains is not stated)
In the case of O=C1CSc2ccc(CNC3CCN(CCc4ccnc5ccccc45)CC3)nc2N1 [Example 9, 6-[({1-[2-(4-quinolinyl)ethyl]-4-piperidinyl}amino)methyl]-2H-pyrido[3,2-b][1,4]thiazin-3(4H)-one dihydrochloride], the MIC is reported as at most 16 µg/mL.
